Columns and labels:
KP4 = assay: Cell viability assay (CellTiter Glo), pancreatic ductal adenocarcinoma KP4; type: cell-based, human; conditions: Homo sapiens, KP-4, 96 h, pancreatic cancer cell line KP4, 96 hours, CellTiter Glo; read-out: IC50 μM KP4
Experimental: (§1) Cell viability assay was performed to assess the potency of the compounds in human cancer cell lines KP4 (pancreatic ductal adenocarcinoma), MiaPaCa-2 (pancreatic carcinoma), AsPC-1 (pancreatic adenocarcinoma, ascites), 143B (osteosarcoma), and SJSA-1 (osteosarcoma). Selected compounds were also assayed in a human breast epithelial cell line MCF-10A, a nontumorigenic cell line as a control to assess differential activity. Cells at a density of 500-5,000 cells/well were seeded in 96-well plates and incubated at 37° C. overnight. A series of 9 different concentrations of compound stocks (500×) were created by 3-fold serial dilution in DMSO. These compounds were further diluted in culture media and then added to cells so that the final DMSO concentration was equal to 0.25% or less. After 96 hours of incubation, 50 μL of CellTiter Glo reagent (Promega) was added to each well and luminescence was measured after 10 minutes using EnVision (PerkinElmer). Compounds titrated from top concentration of up to 30 μM. The select compounds were tested initially from 30 μM as the top concentration in duplicates (range of 4.6 nM-30 μM). […] Luminescence from cells treated with DMSO alone was set as Max and % of inhibition was calculated as follows: Inhibition %=(Max-Sample value)/Max*100. Data was analyzed using XL-fit software (ID Business Solutions Ltd.). IC50, relative IC50, or % of top inhibition was calculated.
as §1, with “in” for “in human”, “line” for “lines”, “adenocarcinoma).” for “adenocarcinoma), MiaPaCa-2 (pancreatic carcinoma), AsPC-1 (pancreatic adenocarcinoma, ascites), 143B (osteosarcoma), and SJSA-1 (osteosarcoma). Selected compounds were also assayed in a human breast epithelial cell line MCF-10A, a nontumorigenic cell line as a control to assess differential activity.”, “1,000-10,000” for “500-5,000”, “All” for “Compounds titrated from top concentration of up to 30 μM. The select”
(§2) The results of the assay on stability in blood and IC50 values for pancreatic cancer cell line KP4 are given below in Table 24.

[1] = Whole blood stability, mouse; type: in vitro ADME
From the text: as §2

[2] = Whole blood stability, human; type: in vitro ADME
From the text: as §2

SMILES	IC50 (KP4)	Whole Blood Stability % Remaining at 37° C. Mouse ([1]; 0 min)	Whole Blood Stability % Remaining at 37° C. Mouse ([1]; 30 min)	Whole Blood Stability % Remaining at 37° C. Mouse ([1]; 60 min)	Whole Blood Stability % Remaining at 37° C. Human ([2]; 0 min)	Whole Blood Stability % Remaining at 37° C. Human ([2]; 30 min)	Whole Blood Stability % Remaining at 37° C. Human ([2]; 60 min)
COC(=O)[C@H]1Cc2c([nH]c3ccccc23)[C@H](c2ccc(C(=O)NCCN)cc2)N1C(=O)CCl [Compound 15]	0.1 to 0.5 µM	100.0%	83.0%	50.2%	100.0%	72.7%	66.8%
COC(=O)[C@H]1Cc2c([nH]c3ccccc23)[C@H](c2ccc(C(=O)NCCNC(=O)OC(C)(C)C)cc2)N1C(=O)CCl [Compound 16]	< 0.01 µM	100.0%	84.1%	63.3%	100.0%	54.3%	36.9%
CC(C)(C)OC(=O)c1ccc([C@H]2c3[nH]c4ccccc4c3C[C@H](C(=O)OC(C)(C)C)N2C(=O)CCl)cc1 [Compound 19]	< 0.01 µM	100.0%	44.5%	21.2%	100.0%	44.4%	35.6%
CC(C)OC(=O)[C@H]1Cc2c([nH]c3ccccc23)[C@H](c2ccc(C(=O)OC(C)(C)C)cc2)N1C(=O)CCl [Compound 20]	< 0.01 µM	100.0%	39.9%	19.1%	100.0%	50.7%	41.6%
CN(C)C(=O)[C@H]1Cc2c([nH]c3ccccc23)[C@H](c2ccc(C(=O)OC(C)(C)C)cc2)N1C(=O)CCl [Compound 21]	0.01 to 0.1 µM	100.0%	14.0%	3.2%	100.0%	49.7%	24.3%
CNS(=O)(=O)c1ccc([C@H]2c3[nH]c4ccccc4c3C[C@H](C(=O)OC)N2C(=O)CCl)cc1 [Compound 22]	< 0.01 µM	100.0%	47.4%	27.6%	100.0%	58.8%	24.9%
COC(=O)[C@H]1Cc2c([nH]c3ccccc23)[C@H](c2ccc(S(=O)(=O)N(C)C)cc2)N1C(=O)CCl [Compound 23]	< 0.01 µM	100.0%	55.5%	34.4%	100.0%	48.9%	30.8%
COC(=O)[C@H]1Cc2c([nH]c3ccccc23)[C@@H](c2ccc(S(=O)(=O)N(C)C)cc2)N1C(=O)CCl [Compound 23a]	> 1 µM	100.0%	83.8%	78.6%	100.0%	83.2%	72.7%

From patent publication US11098040B2, “Compounds and methods of use” (Ferro Therapeutics, Inc., priority 2018, dated 2021)
